Laboratory results: patent US7084239B1, “Cancer peptides of NY-ESO-1/CAG-3” (The United States of America as represented by the …, priority 1997, dated 2006)

System: TIL1244
Assay: T cell recognition of peptide-pulsed 586EBV B cells by TIL1244
Format: cell-based, human
Conditions: peptide pulsed onto 586EBV B cells (FIG. 6)
Excerpt: FIGS. 6A–6H. CTL clones 2 and 14 recognize the NY-ESO-1 gene, but not the ESO10-53 peptide derived from the NY-ESO-1 protein. CTL clones 2, 14 and 5 recognized NY-ESO-1 when cotransfected with HLA-A31 cDNA into COS-7 (FIG. 6A, C, E and G). TIL1244, which recognized TRP-2 But not NY-ESO-1, was used as a specificity control. FIGS. 6B, D, F and H. CTL clones 2, 5, 14, and TIL1244 recognized 586mel. […] TIL1244 recognized the TRP197-205 peptide derived from TRP-2, 586EBV B cells alone or pulsed with the ORF3P peptide from an alternative reading frame of TRP1 were negative controls. 397mel is an HLA-A31-negative, NY-ESO-1-positive tumor line.
DNA transfection and GM-CSF assay were done as previously described (Wang, R. F., P. F. Robbins, Y. Kawakami, X. Q. Kang, and S. A. Rosenberg, 1995, J. Exp. Med. 181:799–804). Briefly, […] of DNA carrying a different fragment and 50 ng of the HLA-A31 DNA were mixed with 2 μl of lipofectamine in 100 μl of serum-free DMEM for 15–45 min. The DNA/lipofectamine mixture was then added to the COS-7 (5×10^4) cells and incubated overnight. The following day, cells were washed twice with DMEM medium. […] After 18–24 h incubation, 100 μl of supernatant was collected and GM-CSF was measured in a standard ELISA assay (R+D Systems, Minneapolis, Minn.). […]

## TRP197-205: peptide derived from TRP-2, recognized by TIL1244; specificity control (LLGPGRPYR; UniProt P40126 197-205, looked up, fragment)
  Recognition by TIL1244, in words: recognized
